Reference: patent US11000516B2 (priority 2015, dated 2021)

Legend:
[1] = test system: EDEN1 (clinical DENV1 isolate); test: Antiviral effect in BHK-21 cells, plaque assay of supernatant 48 h pi; format: cell-based
Experimental: (§1) Cells were infected with DENV strains for 1 hour at 37° C. and washed once with culture media. […] The supernatants were subjected to standard plaque assay and the EC50 values were determined using the GraphPad Prism software.
(§2) NITD008, an adenosine analog inhibitor of DENV polymerase (Yin et al., 2009) was used as a positive control.

[2] = test system: EDEN2 (clinical DENV2 isolate); test: as above; format: cell-based; conditions: Dengue virus, DENV2, BHK-21
Experimental: as §1, §2

[3] = test system: S221 (mouse-adapted DENV2 strain); test: as above; format: cell-based; conditions: Dengue virus, DENV2, BHK-21
Experimental: as §1, §2

[4] = test system: EDEN1 (clinical DENV1 isolate); test: Ab-mediated infection of THP-1 cells with enhancing concentration of 4G2 Ab; format: cell-based; conditions: EDEN1, MOI 2, single experiment
Experimental: as §1, §2

[5] = test system: EDEN2 (clinical DENV2 isolate); test: as above; format: cell-based; conditions: EDEN2, MOI 50, single experiment
Experimental: as §1, §2

[6] = test system: S221 (mouse-adapted DENV2 strain); test: as above; format: cell-based; conditions: S221, MOI 2, single experiment
Experimental: as §1, §2

EDEN1, EDEN2, S221 = test: Antiviral effect in BHK-21 cells, all virus strains; format: cell-based, DENV; conditions: Dengue virus
Experimental: as §1, §2

DENV2 strain #013 = test: CELADEN clinical strain in HuH-7 cells, single concentration, virus titer by plaque assay; format: cell-based; conditions: strain #013, celgosivir 3 mM, 48 hours pi
Experimental: (§3) EDEN1, EDEN2 and S221 were used as control virus strains. The MOI of each strain was indicated in supplementary FIG. 2. After 48 hours pi, virus titer in the supernatants was determined by standard plaque assay using BHK-21 cells. The percentages of virus titer were calculated based on virus infection control of each strain. Error bars indicate standard deviations from duplicate experiments. (B and C) Mice were inoculated i.v. with DENV2 strains, #031 (2×10^7 pfu), #013 (1×10^7 pfu) or #036 (2×10^7 pfu). […] Average viral copy numbers on day 1-2 were measured using mixed serum of each group. Viral copy number on day 3 was measured individually and the graphs show the average results with standard deviations. A P value less than 0.05 was considered significant (*P<0.05). […] Viral copy number on day 3-6 was measured individually and shown in the graphs as the average results with standard deviations. The VLR from day 3 to day 6 was also shown as the mean value and standard deviations. The number of mice per group is 6.
(§4) Total 16 clinical DENV virus were recovered from serum of CELADEN trial patients with 8 of either DENV1 or DENV2 infection. […] The MOI was varied among strains to obtain similar levels of virus titer (within 10-fold difference). The MOI was 0.01 (EDEN1), 0.1 (#005, #048, #004, #033, #010, #013, #022, #036), 0.2 (#016, #017, #011, EDEN2, S221), 0.5 (#049, #038), 1 (#028, #031) and 2 (#025). After 48 hours post-infection, virus titer in the supernatants was determined by standard plaque assay using BHK-21 cells. Error bars indicate standard deviations from duplicate experiments.
(§5) Since infection levels in HuH-7 cells are different among the strains, the MOI of each strain was varied to obtain similar levels of virus titer in the supernatant (FIG. 8).

DENV2 strain #031 = test: as above; format: cell-based; conditions: strain #031, celgosivir 3 mM, 48 hours pi
Experimental: as §3, §4, §5

DENV2 strain #036 = test: as above; format: cell-based; conditions: strain #036, celgosivir 3 mM, 48 hours pi
Experimental: as §3, §4, §5

EDEN1 = test: Non-lethal viremia mouse model; format: in vivo, mice
Experimental: (§6) Mice were inoculated i.v. with EDEN1 (7×10^7 pfu) or EDEN2 (1×10^8 pfu). […] Average viral copy numbers on day 1 and 2 were measured using mixed serum of each group. […] A P value less than 0.05 was considered significant (*P<0.05). The number of mice per group is 6. […] Average viral copy numbers on days 4 and 5 were measured using mixed serum of each group. […] The virological log reduction (VLR) from day 3 to day 6 was also shown as the mean value and standard deviations. The number of mice per group is 6.
(§7) Since dengue fever patients in general present at a clinic when viremia is at a peak level (Low et al., 2014; Nguyen et al., 2013; Tricou et al., 2010), we next compared the 2 different dosing regimens; one started at the time of infection and another started at the time of peak viremia (on day 3 pi) similar to human situation (FIG. 4A). In this experiment, we used a non-lethal viremia mouse model, which permits the tracking of viremia kinetics for a longer period of time (FIG. 1B).

EDEN2 = test: Non-lethal viremia mouse model; format: in vivo, mice
Experimental: as §6, §7

[7] = human, cited from earlier work
[8] = over the tolerated dose range; cited from earlier work
[9] = Dengue virus, DENV2, THP-1, THP-1 with 4G2 Ab

Compound `CCCC(=O)O[C@H]1CN2CC[C@H](O)[C@@H]2[C@@H](O)[C@@H]1O` [celgosivir] has an EC50 ([1]; BHK-21, BHK-21, EDEN1, MOI 0.01) of 66 nM, an EC50 ([1]; BHK-21, BHK-21, EDEN1, MOI 0.3) of 105 nM and an EC50 [2] of 61 nM. The EC50 [3] was 119 nM, the EC50 ([4]; THP-1, THP-1 with 4G2 Ab) was 3200 nM and the EC50 ([4]; THP-1 with 4G2 Ab) was 3240 nM. For the same compound, the EC50 [5, 9] was 800 nM, the EC50 ([5]; THP-1 with 4G2 Ab) was 756 nM and the EC50 [6, 9] was 2100 nM. The EC50 ([6]; THP-1 with 4G2 Ab) was 2140 nM, the EC50 (EDEN1, EDEN2, S221) was under 200 nM and the “reduction in virus titer in the supernatant of HuH-7 cells” value (“reduction in virus titer” below) (DENV2 strain #013) was 67%. For the same compound, the “reduction in virus titer” value (DENV2 strain #031) was 52%, the “reduction in virus titer” value (DENV2 strain #036) was 70% and the “log reduction of viremia (VLR) from day 3 to day 6” value (EDEN1; EDEN1, celgosivir 50 mg/kg BID started at peak viremia (day 3)) was 0.85. For the same compound, the “viremia reduction on day 3 pi” value (EDEN1; EDEN1, non-lethal model, celgosivir 50 mg/kg BID from time of infection) was 2.9 fold, the “log reduction of viremia (VLR) from day 3 to day 6” value (EDEN2; EDEN2, celgosivir 50 mg/kg BID started at peak viremia (day 3)) was 2.62 and the “viremia reduction on day 3 pi” value (EDEN2; EDEN2, non-lethal model, celgosivir 50 mg/kg BID from time of infection) was 9.0 fold. For the same compound, the adverse event profile ([7]; CELADEN study regimen) was “higher incidence of GI effects, but not increased severity”, the “maximum daily dose, total dose” value ([7]; in theory) was at most 600 mg and the “maximum dose as a single dose” value ([7]; in theory) was at most 400 mg. For the same compound, the pharmacokinetics dose dependence [8] was “linear with dose”.
